Reference: EP4711367A1, “PYRAZOLOPYRAZINE COMPOUND AND METHOD FOR PREPARING CRYSTAL FORM THEREOF” (CMS Research & Development Pte. Ltd., priority 2023, dated 2024)

Experiments:
JAK2(h) = biological target: T1, JAK2(h) (Homo sapiens, UniProt O60674); assay: In vitro activity test of JAK2 kinase ([γ-33P]-ATP filter assay, Eurofins); type: biochemical
T1 construct: purchased Eurofins (UK)
Procedure: Recombinant human JAK1, JAK2, JAK3, and Tyk2 proteases, along with major instruments and reagents, were provided by Eurofins in the UK.
JAK2, JAK3, and TYK2 were diluted with: 20 mM 3-(N-morpholino)propanesulfonic acid (MOPS), 1 mM EDTA, 0.01% Brij-35.5% glycerol, 0.1% β-mercaptoethanol, 1 mg/mL BSA; JAK1 was diluted with: 20 mM TRIS, 0.2 mM EDTA, 0.1% β-mercaptoethanol, 0.01% Brij-35.5% glycerol. The compound of formula (I) was prepared as a 100% DMSO solution and diluted to 50 times the final assay concentration. The test compound was subjected to a 3-fold serial dilution, with final concentrations ranging from 10 µM to 0.001 µM across 9 concentrations, and the DMSO content in the detection reaction was 2%. The working stock solution of this compound was added as the first component of the reaction to the assay wells, followed by the addition of the remaining components according to the protocol detailed below.
JAK2(h) was incubated with 8 mM MOPS pH 7.0, 0.2 mM EDTA, 100 µM […], 10 mM magnesium acetate, and [γ-^33P]-ATP (prepared to the required activity and concentration). The reaction was initiated by adding the Mg/ATP mixture and incubated at room temperature for 40 minutes, then terminated by adding 0.5% phosphoric acid. […]
The IC50 results were analyzed using XLFIT5 (205 formula) from IDBS, as detailed in Table 12. […]

[1] = system: IL-23-induced epidermal hyperplasia model of the mouse ear pinna; assay: Pharmacodynamic test of psoriasis model in mice (IL-23 injected into the ear pinna); type: in vivo, C57BL/6 mouse; settings: for Ear thickness (mm)/day: right ear
Procedure: Objective: The purpose of this experiment is to evaluate the preventive and therapeutic effects of the test substance on IL-23-induced psoriasis-like skin lesions in mice, which were established by intradermal injection of IL-23 into the mouse ear pinna.
Methods: After the acclimation period, 50 mice were divided into 5 groups of 10 each by Excel complete randomization, namely: vehicle (0.5% MC & 0.5% Tween 80) control group, model group, and compound of formula (I) (10, 20, 50 mg/kg) groups. Except for the vehicle control group, the remaining groups were intradermally injected with IL-23 (3 µg/10 µL/mouse/day, QD) in the right ear for 8 consecutive days (D1 to D8), while the control group animals were intradermally injected with an equal volume of normal saline solution (10 µL/mouse/day, QD) in the right ear for 8 consecutive days (D1 to D8). During the modeling period, the vehicle or test drug was orally administered twice daily (Bid) at 6-hour intervals for 8 consecutive days (D1 to D8). During the administration period, the body weight of the animals was monitored every two days. On D1, D3, D5, D7 (all before IL-23 injection), and D9, the thickness of the right ear of the mice was measured, and the appearance of the ear pinna was scored. At the end of the experiment (Day 10), the modeled ear was excised, and an ear piece was punched along the ear pinna edge using an 8 mm punch and weighed. The punched right ear piece was fixed with formalin and subjected to histopathological examination (H&E) staining.

[2] = 10 mg/kg oral gavage twice daily for 8 days, day 1
[3] = 10 mg/kg oral gavage twice daily for 8 days, day 3
[4] = 10 mg/kg oral gavage twice daily for 8 days, day 5
[5] = 10 mg/kg oral gavage twice daily for 8 days, day 7
[6] = 10 mg/kg oral gavage twice daily for 8 days, day 9
[7] = 20 mg/kg oral gavage twice daily for 8 days, day 1
[8] = 20 mg/kg oral gavage twice daily for 8 days, day 3
[9] = 20 mg/kg oral gavage twice daily for 8 days, day 5
[10] = 20 mg/kg oral gavage twice daily for 8 days, day 7
[11] = 20 mg/kg oral gavage twice daily for 8 days, day 9
[12] = 50 mg/kg oral gavage twice daily for 8 days, day 1
[13] = 50 mg/kg oral gavage twice daily for 8 days, day 3
[14] = 50 mg/kg oral gavage twice daily for 8 days, day 5
[15] = 50 mg/kg oral gavage twice daily for 8 days, day 7
[16] = 50 mg/kg oral gavage twice daily for 8 days, day 9
[17] = 10, 20, 50 mg/kg oral gavage twice daily for 8 consecutive days

T1 sequence (O60674 whole entry): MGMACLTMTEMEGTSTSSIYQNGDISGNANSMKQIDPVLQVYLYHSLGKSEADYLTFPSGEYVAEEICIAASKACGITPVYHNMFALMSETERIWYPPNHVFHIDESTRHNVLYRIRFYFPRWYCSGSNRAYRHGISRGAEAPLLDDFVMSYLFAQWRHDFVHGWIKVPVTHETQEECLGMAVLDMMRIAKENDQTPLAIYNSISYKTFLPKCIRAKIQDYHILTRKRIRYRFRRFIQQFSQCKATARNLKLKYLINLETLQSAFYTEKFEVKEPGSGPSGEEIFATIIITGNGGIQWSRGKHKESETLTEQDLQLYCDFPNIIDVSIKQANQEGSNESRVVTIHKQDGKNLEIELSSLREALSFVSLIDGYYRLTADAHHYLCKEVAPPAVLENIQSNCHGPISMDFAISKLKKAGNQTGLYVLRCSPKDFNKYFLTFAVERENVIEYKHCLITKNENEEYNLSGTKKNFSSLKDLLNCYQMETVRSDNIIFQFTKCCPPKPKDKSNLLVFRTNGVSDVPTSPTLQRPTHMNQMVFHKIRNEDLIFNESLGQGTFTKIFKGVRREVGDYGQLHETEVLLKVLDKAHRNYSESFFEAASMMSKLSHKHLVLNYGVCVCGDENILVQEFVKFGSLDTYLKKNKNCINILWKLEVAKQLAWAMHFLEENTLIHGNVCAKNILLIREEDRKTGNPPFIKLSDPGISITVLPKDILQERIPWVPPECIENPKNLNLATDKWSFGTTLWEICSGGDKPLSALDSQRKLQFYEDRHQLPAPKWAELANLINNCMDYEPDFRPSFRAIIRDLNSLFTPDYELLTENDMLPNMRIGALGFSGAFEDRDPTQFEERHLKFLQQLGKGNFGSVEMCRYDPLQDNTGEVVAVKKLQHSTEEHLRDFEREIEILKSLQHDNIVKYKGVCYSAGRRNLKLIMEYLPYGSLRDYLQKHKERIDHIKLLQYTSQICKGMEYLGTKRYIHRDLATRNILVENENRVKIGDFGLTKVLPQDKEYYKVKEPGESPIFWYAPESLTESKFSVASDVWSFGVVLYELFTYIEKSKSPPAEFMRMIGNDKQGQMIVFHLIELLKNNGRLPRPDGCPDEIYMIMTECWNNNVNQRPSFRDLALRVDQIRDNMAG

`Cn1cc(-c2cn3nccc3c(-c3cnn([C@]4(CC#N)CC5(C[C@H](C#N)C5)C4)c3)n2)cn1` (stereo partly drawn) [Compound of formula (I)] was tested, and the IC50 (JAK2(h)) was 4 nM, the “Body weight (g)/day” value [1, 2] was 19.77 ± 0.59 g and the Ear comprehensive score/day [1, 2] was 0.00 ± 0.00. For the same compound, the “Body weight (g)/day” value [1, 3] was 19.69 ± 0.57 g, the Ear comprehensive score/day [1, 3] was 0.00 ± 0.00 and the “Body weight (g)/day” value [1, 4] was 20.02 ± 0.77 g. For the same compound, the Ear comprehensive score/day [1, 4] was 0.60 ± 0.52, the “Body weight (g)/day” value [1, 5] was 19.69 ± 0.63 g and the Ear comprehensive score/day [1, 5] was 1.70 ± 1.06. The “Body weight (g)/day” value [1, 6] was 20.04 ± 0.72 g, the Ear comprehensive score/day [1, 6] was 2.60 ± 1.43 and the “Ear thickness (mm)/day” value [1, 6] was 0.430 ± 0.048 mm. For the same compound, the “Body weight (g)/day” value [1, 7] was 19.77 ± 0.54 g, the Ear comprehensive score/day [1, 7] was 0.00 ± 0.00 and the “Body weight (g)/day” value [1, 8] was 19.85 ± 0.78 g. For the same compound, the Ear comprehensive score/day [1, 8] was 0.00 ± 0.00, the “Body weight (g)/day” value [1, 9] was 20.13 ± 0.78 g and the Ear comprehensive score/day [1, 9] was 0.60 ± 0.70. The “Body weight (g)/day” value [1, 10] was 19.80 ± 0.92 g, the Ear comprehensive score/day [1, 10] was 1.40 ± 0.52 and the “Body weight (g)/day” value [1, 11] was 20.27 ± 0.90 g. For the same compound, the Ear comprehensive score/day [1, 11] was 1.50 ± 0.71, the “Ear thickness (mm)/day” value [1, 7] was 0.190 ± 0.009 mm and the “Ear thickness (mm)/day” value [1, 10] was 0.350 ± 0.025 mm. The “Body weight (g)/day” value [1, 12] was 19.78 ± 0.53 g, the Ear comprehensive score/day [1, 12] was 0.00 ± 0.00 and the “Body weight (g)/day” value [1, 13] was 19.85 ± 0.68 g. For the same compound, the Ear comprehensive score/day [1, 13] was 0.00 ± 0.00, the “Body weight (g)/day” value [1, 14] was 20.41 ± 0.70 g and the Ear comprehensive score/day [1, 14] was 0.10 ± 0.32. For the same compound, the “Body weight (g)/day” value [1, 15] was 20.15 ± 0.56 g, the Ear comprehensive score/day [1, 15] was 1.40 ± 0.70 and the “Body weight (g)/day” value [1, 16] was 20.28 ± 0.76 g. For the same compound, the Ear comprehensive score/day [1, 16] was 1.00 ± 0.47, the “effect on the body weight of the animals (in words)” value [1, 17] was “no significant effect” and the “effect on the weight of the modeled ear (in words)” value [1, 17] was “significantly reduce”. For the same compound, the “effect on the total score of the modeled ear (in words)” value ([1]; 10, 20, 50 mg/kg oral gavage twice daily for 8 consecutive days, from D5 to D9) was “significantly reduce”, the “effect on the thickness of the modeled ear (in words)” value ([1]; dose of 50 mg/kg, as early as D3) was “significantly reduces” and the “effect on the thickness of the modeled ear (in words)” value ([1]; doses of 10 and 20 mg/kg, starting from day 5) was “significantly reduces”.
